Measured values from US20250049970A1, “DLL3 TARGETING PEPTIDES AND CONSTRUCTS THEREOF” (MARIANA ONCOLOGY INC., priority 2023, published 2025).
*1 amine or outer side, *2 acyl side, *3 side chain or, on linkers, in order; H or OH if unused. Where a SMILES comes first, the peptide text is derived from it. Bridges are numbered along the chain shown (N, C = ends). [ ]: non-standard residue; d: D form. The star is where a group is joined. X9 = CSCC[C@H](NC(=O)c1ccc(CNC(=O)CN2CCN(CC(=O)O)CCN(CC(=O)O)CCN(CC(=O)O)CC2)cc1)C(=O)N[C@H](C(=O)N[C@@H](CCCCN*)C(=O)O)C(C)C; X7 = O=C(O)CN1CCN(CC(=O)O)CCN(CC(=O)N[C@H]2CC[C@H](CC(=O)*)CC2)CCN(CC(=O)O)CC1; Ala(piperidin-4-yl) = O=C([C@H](CC1CCN([*:3])CC1)N[*:1])[*:2]; Ala(morpholin-4-yl) = N[C@@H](CN1CCOCC1)C(=O)O; NMeW = CN[C@@H](Cc1c[nH]c2ccccc12)C(=O)O; 2Nal = N[C@@H](Cc1ccc2ccccc2c1)C(=O)O; Gly(4-THP) = N[C@H](C(=O)O)C1CCOCC1; NMeH = CN[C@@H](Cc1c[nH]cn1)C(=O)O; NMeT = CN[C@H](C(=O)O)[C@@H](C)O; NMeD = CN[C@@H](CC(=O)O)C(=O)O; NMeN = CN[C@@H](CC(N)=O)C(=O)O; Chg = N[C@H](C(=O)O)C1CCCCC1; Tle = CC(C)(C)[C@H](N)C(=O)O

molecular target: T1, DLL3 (Homo sapiens, UniProt Q9NYJ7); assay: SPR KD, biotinylated human DLL3 on streptavidin chip (Table 8); design: biotin (biotinylated); settings: biotinylated human DLL3 on streptavidin sensor chip, 25° C., 1:1 binding model; read-out: SPR KD
T1 sequence (Q9NYJ7 27-618): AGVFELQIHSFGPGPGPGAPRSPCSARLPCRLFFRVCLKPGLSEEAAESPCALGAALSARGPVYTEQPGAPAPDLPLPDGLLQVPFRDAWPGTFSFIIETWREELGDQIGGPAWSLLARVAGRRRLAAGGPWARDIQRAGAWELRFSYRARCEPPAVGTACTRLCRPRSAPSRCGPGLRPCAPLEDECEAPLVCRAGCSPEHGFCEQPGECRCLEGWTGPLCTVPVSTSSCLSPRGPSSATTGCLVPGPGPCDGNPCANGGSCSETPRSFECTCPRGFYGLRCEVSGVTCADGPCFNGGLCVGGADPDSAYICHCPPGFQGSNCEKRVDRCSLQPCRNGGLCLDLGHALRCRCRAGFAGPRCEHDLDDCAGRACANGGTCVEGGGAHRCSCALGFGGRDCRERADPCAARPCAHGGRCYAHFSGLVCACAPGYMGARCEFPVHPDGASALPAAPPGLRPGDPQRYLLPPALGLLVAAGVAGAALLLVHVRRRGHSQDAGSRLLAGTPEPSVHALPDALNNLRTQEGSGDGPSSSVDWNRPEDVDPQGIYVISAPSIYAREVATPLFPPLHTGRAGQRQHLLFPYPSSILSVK
Excerpt: Biotinylated target ligand human DLL3 was immobilized on a streptavidin sensor chip. A reference surface was set up for nonspecific binding and refractive index changes. […] Sensorgram curves were fitted with 1:1 binding model, and affinity and kinetic parameters were obtained using Biacore Insight evaluation 4.0. software.

Kd [µM]	SMILES
0.001 to 0.01	CSCC[C@H](NC(=O)c1ccc(CNC(=O)CN2CCN(CC(=O)O)CCN(CC(=O)O)CCN(CC(=O)O)CC2)cc1)C(=O)N[C@H](C(=O)N[C@@H](CCCCNC(=O)CC[C@@H]1NC(=O)[C@H](Cc2ccc3ccccc3c2)NC(=O)[C@H](CC(N)=O)NC(=O)[C@H](CC2CCNCC2)NC(=O)[C@@H](NC(=O)[C@@H](NC(=O)[C@@H](NC(=O)[C@H](Cc2c[nH]c3ccccc23)NC(C)=O)[C@@H](C)O)C(C)(C)C)CSSC[C@@H](C(=O)N[C@@H](Cc2c[nH]c3ccccc23)C(=O)N2CCC[C@H]2C(N)=O)NC(=O)[C@H](CC(=O)O)NC1=O)C(=O)O)C(C)C [compound 377] (Ac-WT[Tle]C[Ala(piperidin-4-yl)]N[2Nal]E(X9)DCWP-NH2; disulfide 4-10)
0.001 to 0.01	CSCC[C@H](NC(=O)c1ccc(CNC(=O)CN2CCN(CC(=O)O)CCN(CC(=O)O)CCN(CC(=O)O)CC2)cc1)C(=O)N[C@H](C(=O)N[C@@H](CCCCNC(=O)CC[C@@H]1NC(=O)[C@H](Cc2ccc3ccccc3c2)NC(=O)[C@H](CC(N)=O)NC(=O)[C@H](CC2CCNCC2)NC(=O)[C@@H](NC(=O)[C@@H](NC(=O)[C@@H](NC(=O)[C@H](Cc2c[nH]c3ccccc23)NC(C)=O)[C@@H](C)O)C2CCOCC2)CSSC[C@@H](C(=O)N[C@@H](Cc2c[nH]c3ccccc23)C(=O)N2CCC[C@H]2C(N)=O)NC(=O)[C@H](CC(=O)O)NC1=O)C(=O)O)C(C)C [compound 378, Ac-W-T-(THPG)-C(3)-[3-(4-piperidinyl)-Ala]-N-(2Nal)-[Glu(gLys(OH)-Val-Met-AmBz-DOTA)]-D-C(3)-W-P-CONH2] (Ac-WT[Gly(4-THP)]C[Ala(piperidin-4-yl)]N[2Nal]E(X9)DCWP-NH2; disulfide 4-10)
< 0.001	CC(=O)N[C@@H](Cc1c[nH]c2ccccc12)C(=O)N[C@H](C(=O)N[C@H](C(=O)N[C@H]1CSSC[C@@H](C(=O)N[C@@H](Cc2c[nH]c3ccccc23)C(=O)N2CCC[C@H]2C(N)=O)NC(=O)[C@H](CC(=O)O)NC(=O)[C@H](CCCCNC(=O)C[C@H]2CC[C@H](NC(=O)CN3CCN(CC(=O)O)CCN(CC(=O)O)CCN(CC(=O)O)CC3)CC2)NC(=O)[C@H](Cc2ccc3ccccc3c2)NC(=O)[C@H](CC(N)=O)NC(=O)[C@H](CC2CCNCC2)NC1=O)C1CCCCC1)[C@@H](C)O [compound 379, Ac-W-T-(Chg)-C(3)-[3-(4-piperidinyl)-Ala]-N-(2Nal)-Lys(Chx-DOTA)-D-C(3)-W-P-CONH2] (Ac-WT[Chg]C[Ala(piperidin-4-yl)]N[2Nal]K(X7)DCWP-NH2; disulfide 4-10)
< 0.001	CC(=O)N[C@@H](Cc1c[nH]c2ccccc12)C(=O)N[C@H](C(=O)N[C@H](C(=O)N[C@H]1CSSC[C@@H](C(=O)N[C@@H](Cc2c[nH]c3ccccc23)C(=O)N2CCC[C@H]2C(N)=O)NC(=O)[C@H](CC(=O)O)NC(=O)[C@H](CCCCNC(=O)C[C@H]2CC[C@H](NC(=O)CN3CCN(CC(=O)O)CCN(CC(=O)O)CCN(CC(=O)O)CC3)CC2)NC(=O)[C@H](Cc2ccc3ccccc3c2)NC(=O)[C@H](CC(N)=O)NC(=O)[C@H](CN2CCOCC2)NC1=O)C1CCCCC1)[C@@H](C)O [compound 380, Ac-W-T-(Chg)-C(3)-[3-(1-morpholinyl)-Ala]-N-(2Nal)-Lys(Chx-DOTA)-D-C(3)-W-P-CONH2] (Ac-WT[Chg]C[Ala(morpholin-4-yl)]N[2Nal]K(X7)DCWP-NH2; disulfide 4-10)
< 0.001	CSCC[C@H](NC(=O)c1ccc(CNC(=O)CN2CCN(CC(=O)O)CCN(CC(=O)O)CCN(CC(=O)O)CC2)cc1)C(=O)N[C@H](C(=O)N[C@@H](CCCCNC(=O)CC[C@@H]1NC(=O)[C@H](Cc2ccc3ccccc3c2)NC(=O)[C@H](CC(N)=O)NC(=O)[C@H](CC2CCNCC2)NC(=O)[C@@H](NC(=O)[C@@H](NC(=O)[C@@H](NC(=O)[C@H](Cc2c[nH]c3ccccc23)NC(C)=O)[C@@H](C)O)C2CCCCC2)CSSC[C@@H](C(=O)N[C@@H](Cc2c[nH]c3ccccc23)C(=O)N2CCC[C@H]2C(N)=O)NC(=O)[C@H](CC(=O)O)NC1=O)C(=O)O)C(C)C [compound 381, Ac-W-T-(Chg)-C(3)-[3-(4-piperidinyl)-Ala]-N-(2Nal)-[Glu(gLys(OH)-Val-Met-AmBz-DOTA)]-D-C(3)-W-P-CONH2] (Ac-WT[Chg]C[Ala(piperidin-4-yl)]N[2Nal]E(X9)DCWP-NH2; disulfide 4-10)
0.01 to 0.1	CC[C@H](C)[C@H](NC(=O)[C@@H](NC(=O)[C@H](Cc1c[nH]c2ccccc12)N(C)C(C)=O)[C@@H](C)O)C(=O)N[C@H]1CSSC[C@@H](C(=O)N[C@@H](Cc2c[nH]c3ccccc23)C(=O)N2CCC[C@H]2C(=O)O)NC(=O)[C@H](CC(=O)O)NC(=O)[C@H](Cc2c[nH]cn2)NC(=O)[C@H](Cc2c[nH]c3ccccc23)NC(=O)[C@H](CC(N)=O)NC(=O)[C@H](CC(N)=O)NC1=O [compound 382, Ac-(NmeW)-T-I-C(3)-N-N-W-H-D-C(3)-W-P-CONH2] (Ac-[NMeW]TICNNWHDCWP-OH; disulfide 4-10)
0.1 to 0.3	CC[C@H](C)[C@H](NC(=O)[C@H]([C@@H](C)O)N(C)C(=O)[C@H](Cc1c[nH]c2ccccc12)NC(C)=O)C(=O)N[C@H]1CSSC[C@@H](C(=O)N[C@@H](Cc2c[nH]c3ccccc23)C(=O)N2CCC[C@H]2C(N)=O)NC(=O)[C@H](CC(=O)O)NC(=O)[C@H](Cc2cnc[nH]2)NC(=O)[C@H](Cc2c[nH]c3ccccc23)NC(=O)[C@H](CC(N)=O)NC(=O)[C@H](CC(N)=O)NC1=O [compound 383, Ac-W-(NmeT)-I-C(3)-N-N-W-H-D-C(3)-W-P-CONH2] (Ac-W[NMeT]ICNNWHDCWP-NH2; disulfide 4-10)
0.01 to 0.1	CC[C@H](C)[C@H](NC(=O)[C@@H](NC(=O)[C@H](Cc1c[nH]c2ccccc12)NC(C)=O)[C@@H](C)O)C(=O)N[C@H]1CSSC[C@@H](C(=O)N[C@@H](Cc2c[nH]c3ccccc23)C(=O)N2CCC[C@H]2C(=O)O)NC(=O)[C@H](CC(=O)O)NC(=O)[C@H](Cc2c[nH]cn2)NC(=O)[C@H](Cc2c[nH]c3ccccc23)NC(=O)[C@H](CC(=O)O)NC(=O)[C@H](CC(N)=O)N(C)C1=O [compound 384, Ac-W-T-I-C(3)-(NmeN)-N-W-H-D-C(3)-W-P-CONH2] (Ac-WTIC[NMeN]DWHDCWP-OH; disulfide 4-10)
0.01 to 0.1	CC[C@H](C)[C@H](NC(=O)[C@@H](NC(=O)[C@H](Cc1c[nH]c2ccccc12)NC(C)=O)[C@@H](C)O)C(=O)N[C@H]1CSSC[C@@H](C(=O)N[C@@H](Cc2c[nH]c3ccccc23)C(=O)N2CCC[C@H]2C(=O)O)NC(=O)[C@H](CC(=O)O)NC(=O)[C@H](Cc2c[nH]cn2)NC(=O)[C@H](Cc2c[nH]c3ccccc23)NC(=O)[C@H](CC(N)=O)N(C)C(=O)[C@H](CC(N)=O)NC1=O [compound 385, Ac-W-T-I-C(3)-N-(NmeN)-W-H-D-C(3)-W-P-CONH2] (Ac-WTICN[NMeN]WHDCWP-OH; disulfide 4-10)
0.1 to 0.3	CC[C@H](C)[C@H](NC(=O)[C@@H](NC(=O)[C@H](Cc1c[nH]c2ccccc12)NC(C)=O)[C@@H](C)O)C(=O)N[C@H]1CSSC[C@@H](C(=O)N[C@@H](Cc2c[nH]c3ccccc23)C(=O)N2CCC[C@H]2C(=O)O)NC(=O)[C@H](CC(=O)O)NC(=O)[C@H](Cc2c[nH]cn2)NC(=O)[C@H](Cc2c[nH]c3ccccc23)N(C)C(=O)[C@H](CC(N)=O)NC(=O)[C@H](CC(N)=O)NC1=O [compound 386, Ac-W-T-I-C(3)-N-N-(NmeW)-H-D-C(3)-W-P-CONH2] (Ac-WTICNN[NMeW]HDCWP-OH; disulfide 4-10)
0.01 to 0.1	CC[C@H](C)[C@H](NC(=O)[C@@H](NC(=O)[C@H](Cc1c[nH]c2ccccc12)NC(C)=O)[C@@H](C)O)C(=O)N[C@H]1CSSC[C@@H](C(=O)N[C@@H](Cc2c[nH]c3ccccc23)C(=O)N2CCC[C@H]2C(N)=O)NC(=O)[C@H](CC(=O)O)NC(=O)[C@H](Cc2cnc[nH]2)N(C)C(=O)[C@H](Cc2c[nH]c3ccccc23)NC(=O)[C@H](CC(N)=O)NC(=O)[C@H](CC(N)=O)NC1=O [compound 387, Ac-W-T-I-C(3)-N-N-W-(NmeH)-D-C(3)-W-P-CONH2] (Ac-WTICNNW[NMeH]DCWP-NH2; disulfide 4-10)
0.1 to 0.3	CC[C@H](C)[C@H](NC(=O)[C@@H](NC(=O)[C@H](Cc1c[nH]c2ccccc12)NC(C)=O)[C@@H](C)O)C(=O)N[C@H]1CSSC[C@@H](C(=O)N[C@@H](Cc2c[nH]c3ccccc23)C(=O)N2CCC[C@H]2C(N)=O)NC(=O)[C@H](CC(=O)O)N(C)C(=O)[C@H](Cc2cnc[nH]2)NC(=O)[C@H](Cc2c[nH]c3ccccc23)NC(=O)[C@H](CC(N)=O)NC(=O)[C@H](CC(N)=O)NC1=O [compound 388, Ac-W-T-I-C(3)-N-N-W-H-(NmeD)-C(3)-W-P-CONH2] (Ac-WTICNNWH[NMeD]CWP-NH2; disulfide 4-10)
0.1 to 0.3	CC[C@H](C)[C@H](NC(=O)[C@@H](NC(=O)[C@H](Cc1c[nH]c2ccccc12)NC(C)=O)[C@@H](C)O)C(=O)N[C@H]1CSSC[C@@H](C(=O)N(C)[C@@H](Cc2c[nH]c3ccccc23)C(=O)N2CCC[C@H]2C(=O)O)NC(=O)[C@H](CC(=O)O)NC(=O)[C@H](Cc2c[nH]cn2)NC(=O)[C@H](Cc2c[nH]c3ccccc23)NC(=O)[C@H](CC(N)=O)NC(=O)[C@H](CC(N)=O)NC1=O [compound 389, Ac-W-T-I-C(3)-N-N-W-H-D-C(3)-(NmeW)-P-CONH2] (Ac-WTICNNWHDC[NMeW]P-OH; disulfide 4-10)
